Assay results published in US20240279241A1, “PYRIDO[4,3-D]PYRIMIDINE COMPOUNDS CAPABLE OF INHIBITING KRAS MUTANT PROTEINS” (Redx Pharma PLC, priority 2021, published 2024).
Where two headings read alike, the source gives them in different places.

Assays:
Type in all cases: biochemical
KRAS G12D = molecular target: T1, KRAS G12D (Homo sapiens, UniProt P01116, G12D); assay: HTRF nucleotide exchange assay (NEA), KRAS G12D; details: recombinant human KRAS G12D aa1-188, 2 nM; lowest class = % inhibition at 10 μM
T1 construct: Recombinant human RAS protein (2 nM)
T1 sequence (P01116 1-188 isoform P01116-2 G12D): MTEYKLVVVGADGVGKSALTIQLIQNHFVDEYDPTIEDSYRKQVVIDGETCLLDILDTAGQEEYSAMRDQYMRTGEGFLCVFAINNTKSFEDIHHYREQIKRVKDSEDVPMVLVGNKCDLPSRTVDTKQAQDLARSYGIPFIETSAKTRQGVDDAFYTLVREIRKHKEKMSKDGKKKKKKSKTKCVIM
Method in brief: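 Compound binding to KRAS G12D was measured by HTRF nucleotide exchange. Recombinant human KRAS G12D (aa1-188, N-terminal 6×His-tag, 2 nM) and 2 nM Europium anti-6×His antibody were combined with compound in 5 uL assay buffer in 384-well plates for 60 minutes at room temperature, then 5 ul of 200 nM EDA-GTP-DY647P1 was added for 30 minutes before time-resolved fluorescence reading.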

KRAS WT = molecular target: T2, KRAS WT (Homo sapiens, UniProt P01116); assay: HTRF nucleotide exchange assay (NEA), KRAS WT
T2 construct: Recombinant human RAS protein (2 nM); aa1-188 KRAS WT
T2 sequence (P01116 1-188 isoform P01116-2): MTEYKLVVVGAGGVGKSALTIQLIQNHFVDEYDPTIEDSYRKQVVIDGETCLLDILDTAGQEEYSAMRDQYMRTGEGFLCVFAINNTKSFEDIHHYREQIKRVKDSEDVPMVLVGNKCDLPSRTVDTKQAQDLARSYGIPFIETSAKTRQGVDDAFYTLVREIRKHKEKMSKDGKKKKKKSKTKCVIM
Method in brief: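 Cmpd + His-KRAS(1-188) [WT, G13D 2 nM; G12C, G12S 4 nM] + Eu anti-6×His 2 nM, pH 7.3 HEPES/NaCl/MgCl2/KF buffer, 60 min RT. Add EDA-GTP-DY647P1 (200 nM soln), 30 min RT. HTRF read. DMSO = max signal; 4PL IC50.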

KRAS G12C = molecular target: T3, KRAS G12C (Homo sapiens, UniProt P01116, G12C); assay: HTRF nucleotide exchange assay (NEA), KRAS G12C
T3 construct: 4 nM KRAS; aa1-188 containing the G12V, G12C, G12A or G12S amino acid substitution
T3 sequence (P01116 1-188 isoform P01116-2 G12C): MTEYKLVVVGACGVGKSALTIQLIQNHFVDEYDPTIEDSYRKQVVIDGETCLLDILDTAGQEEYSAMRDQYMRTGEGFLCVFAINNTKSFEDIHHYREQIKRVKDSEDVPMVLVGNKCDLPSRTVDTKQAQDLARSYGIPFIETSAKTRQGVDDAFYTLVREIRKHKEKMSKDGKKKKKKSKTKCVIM
Description: (§1) The capacity of compounds to bind KRAS G12D, other KRAS mutants and wildtype RAS isoforms was quantified using a HTRF nucleotide exchange assay. Recombinant human RAS protein (2 nM; aa1-188 KRAS WT, HRAS WT, NRAS WT, or KRAS containing the containing the G12D, G13D or Q61H amino acid substitutions, or 4 nM KRAS; aa1-188 containing the G12V, G12C, G12A or G12S amino acid substitution, an N-terminal 6×His-tag and leader sequence), and 2 nM Europium-labeled anti-6×His antibody were mixed in assay buffer (10 mM HEPES pH7.3, 150 mM NaCl, 5 mM MgCl2, 0.05% BSA, 0.0025% NP-40 and 100 mM KF) with various concentrations of compound in a 384-well plate and a volume of 5 uL. After a 60-minute incubation at room temperature, 5 ul of 200 nM EDA-GTP-DY647P1 (diluted in assay buffer) was added to the plate. Following 30-minute incubation at room temperature, time-resolved fluorescence was measured on a PerkinElmer Envision plate reader. DMSO (0.3%) and unlabeled […] (1 μM) or equivalent tool compound were used to generate the Max and Min assay signals, respectively. Data was analysed using a four-parameter logistic model to calculate IC50 values, with at least two independent replicates were performed for each compound.

KRAS G12V = molecular target: T4, KRAS G12V (Homo sapiens, UniProt P01116, G12V); assay: HTRF nucleotide exchange assay (NEA), KRAS G12V
T4 construct: 4 nM KRAS; aa1-188 containing the G12V, G12C, G12A or G12S amino acid substitution
T4 sequence (P01116 1-188 isoform P01116-2 G12V): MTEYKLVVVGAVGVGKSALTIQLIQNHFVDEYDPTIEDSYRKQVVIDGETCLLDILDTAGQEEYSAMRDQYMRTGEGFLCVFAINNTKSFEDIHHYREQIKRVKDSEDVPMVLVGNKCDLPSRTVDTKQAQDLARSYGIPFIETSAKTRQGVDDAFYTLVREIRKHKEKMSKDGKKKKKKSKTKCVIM
Description: as §1

KRAS G12S = molecular target: T5, KRAS G12S (Homo sapiens, UniProt P01116, G12S); assay: HTRF nucleotide exchange assay (NEA), KRAS G12S
T5 construct: 4 nM KRAS; aa1-188 containing the G12V, G12C, G12A or G12S amino acid substitution
T5 sequence (P01116 1-188 isoform P01116-2 G12S): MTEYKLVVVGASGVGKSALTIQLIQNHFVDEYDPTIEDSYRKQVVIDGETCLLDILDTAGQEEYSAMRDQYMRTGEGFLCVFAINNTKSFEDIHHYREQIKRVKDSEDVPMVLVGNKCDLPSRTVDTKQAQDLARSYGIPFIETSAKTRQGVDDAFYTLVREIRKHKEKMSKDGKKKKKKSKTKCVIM
Description: as §1

KRAS G12A = molecular target: T6, KRAS G12A (Homo sapiens, UniProt P01116, G12A); assay: HTRF nucleotide exchange assay (NEA), KRAS G12A
T6 construct: 4 nM KRAS; aa1-188 containing the G12V, G12C, G12A or G12S amino acid substitution
T6 sequence (P01116 1-188 isoform P01116-2 G12A): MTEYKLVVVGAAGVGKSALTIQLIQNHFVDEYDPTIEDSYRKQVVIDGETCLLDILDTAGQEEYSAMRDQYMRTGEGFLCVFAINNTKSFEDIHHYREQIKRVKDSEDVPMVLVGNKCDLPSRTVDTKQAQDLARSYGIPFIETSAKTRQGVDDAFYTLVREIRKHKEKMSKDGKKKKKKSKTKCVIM
Description: as §1

KRAS G13D = molecular target: T7, KRAS G13D (Homo sapiens, UniProt P01116, G13D); assay: HTRF nucleotide exchange assay (NEA), KRAS G13D
T7 construct: Recombinant human RAS protein (2 nM); aa1-188 KRAS WT
T7 sequence (P01116 1-188 isoform P01116-2 G13D): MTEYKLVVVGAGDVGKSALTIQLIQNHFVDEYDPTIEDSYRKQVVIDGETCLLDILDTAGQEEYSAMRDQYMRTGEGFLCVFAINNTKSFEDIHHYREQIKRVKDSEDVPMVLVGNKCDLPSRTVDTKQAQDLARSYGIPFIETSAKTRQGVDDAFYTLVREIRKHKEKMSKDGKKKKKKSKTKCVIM
Description: as §1

KRAS Q61H = molecular target: T8, KRAS Q61H (Homo sapiens, UniProt P01116, Q61H); assay: HTRF nucleotide exchange assay (NEA), KRAS Q61H
T8 construct: Recombinant human RAS protein (2 nM); aa1-188 KRAS WT
T8 sequence (P01116 1-188 isoform P01116-2 Q61H): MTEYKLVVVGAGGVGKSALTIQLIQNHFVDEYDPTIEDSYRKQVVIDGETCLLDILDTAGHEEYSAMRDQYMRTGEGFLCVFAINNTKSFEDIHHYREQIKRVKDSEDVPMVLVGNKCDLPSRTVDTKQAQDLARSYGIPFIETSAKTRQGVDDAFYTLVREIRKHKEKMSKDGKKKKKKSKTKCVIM
Description: as §1

[1] = recombinant human KRAS G13D aa1-188, 2 nM, lowest class = % inhibition at 10 μM
[2] = recombinant human KRAS G12S aa1-188, 4 nM, lowest class = % inhibition at 10 μM

| SMILES | IC50 (KRAS G12D) [nM] | IC50 (KRAS WT) [nM] | IC50 (KRAS G12C) [nM] | IC50 (KRAS G12V) [nM] | IC50 (KRAS G12S) [nM] | IC50 (KRAS G12A) [nM] | IC50 (KRAS G13D) [nM] | IC50 (KRAS Q61H) [nM] | IC50 (KRAS G13D; [1]) [nM] | IC50 (KRAS G12S; [2]) [nM] |
| --- | --- | --- | --- | --- | --- | --- | --- | --- | --- | --- |
| C#Cc1c(F)ccc2cc(O)cc(-c3ncc4c(N5CCCCCC5)nc(OC[C@@]56CCCN5C[C@H](F)C6)nc4c3F)c12 (relative stereo) [Example 84, 4-[4-(azepan-1-yl)-8-fluoro-2-[[trans-2-fluoro-1,2,3,5,6,7-hexahydropyrrolizin-8-yl]methoxy]pyrido[4,3-d]pyrimidin-7-yl]-5-ethynyl-6-fluoro-naphthalen-2-ol] | ≤ 10 | ≤ 10 | ≤ 10 | ≤ 10 | ≤ 10 | ≤ 10 | 100 to 10000 | ≤ 10 |  |  |
| C#Cc1c(F)ccc2cc(O)cc(-c3ncc4c(NCCCOC)nc(OC[C@@]56CCCN5C[C@H](F)C6)nc4c3F)c12 (relative stereo) [Example 85, 5-ethynyl-6-fluoro-4-[8-fluoro-2-[[trans-2-fluoro-1,2,3,5,6,7-hexahydropyrrolizin-8-yl]methoxy]-4-(3-methoxypropylamino)pyrido[4,3-d]pyrimidin-7-yl]naphthalen-2-ol] | ≤ 10 | ≤ 10 | ≤ 10 | ≤ 10 | 10 to 100 | ≤ 10 |  | 10 to 100 | > 10000 |  |
| Oc1cc(-c2ncc3c(N4CC5CNCC5C4)nc(OCC45CCCN4CCC5)nc3c2F)c2ccccc2c1 (stereo not drawn) [Example 1, 4-[4-(2,3,3a,4,6,6a-hexahydro-1H-pyrrolo[3,4-c]pyrrol-5-yl)-8-fluoro-2-(1,2,3,5,6,7-hexahydropyrrolizin-8-ylmethoxy)pyrido[4,3-d]pyrimidin-7-yl]naphthalen-2-ol] | 10 to 100 | 100 to 10000 | 100 to 10000 | 100 to 10000 |  |  | 100 to 10000 | 100 to 10000 |  |  |
| Oc1cc(-c2ncc3c(N4CCCOCC4)nc(OCC45CCCN4CCC5)nc3c2F)c2ccccc2c1 [Example 3, 4-[8-fluoro-2-(1,2,3,5,6,7-hexahydropyrrolizin-8-ylmethoxy)-4-(1,4-oxazepan-4-yl)pyrido[4,3-d]pyrimidin-7-yl]naphthalen-2-ol] | ≤ 10 | 10 to 100 | ≤ 10 | ≤ 10 | 10 to 100 | ≤ 10 | 100 to 10000 | 10 to 100 |  |  |
| Oc1cc(-c2ncc3c(N4CCOC5(CCCC5)C4)nc(OCC45CCCN4CCC5)nc3c2F)c2ccccc2c1 [Example 4, 4-[8-fluoro-2-(1,2,3,5,6,7-hexahydropyrrolizin-8-ylmethoxy)-4-(6-oxa-9-azaspiro[4.5]-decan-9-yl)pyrido[4,3-d]pyrimidin-7-yl]naphthalen-2-ol] | 100 to 10000 | 100 to 10000 | 100 to 10000 | 100 to 10000 |  | 100 to 10000 |  |  | > 10000 | > 10000 |
| Oc1cc(-c2ncc3c(N4CCC5(CCOC5)CC4)nc(OCC45CCCN4CCC5)nc3c2F)c2ccccc2c1 [Example 8, 4-[8-fluoro-2-(1,2,3,5,6,7-hexahydropyrrolizin-8-ylmethoxy)-4-(2-oxa-8-azaspiro[4.5]decan-8-yl)pyrido[4,3-d]pyrimidin-7-yl]naphthalen-2-ol] | 100 to 10000 | 100 to 10000 | 100 to 10000 | 100 to 10000 |  |  | 100 to 10000 | 100 to 10000 |  |  |
| Oc1cc(-c2ncc3c(NCC4CCOCC4)nc(OCC45CCCN4CCC5)nc3c2F)c2ccccc2c1 [Example 9, 4-[8-fluoro-2-(1,2,3,5,6,7-hexahydropyrrolizin-8-ylmethoxy)-4-(tetrahydropyran-4-ylmethylamino)pyrido[4,3-d]pyrimidin-7-yl]naphthalen-2-ol] | 100 to 10000 | 100 to 10000 | 100 to 10000 | 100 to 10000 | 100 to 10000 | 100 to 10000 |  |  | > 10000 |  |
| O=C1CN(c2nc(OCC34CCCN3CCC4)nc3c(F)c(-c4cc(O)cc5ccccc45)ncc23)CCN1 [Example 10, 4-[8-fluoro-2-(1,2,3,5,6,7-hexahydropyrrolizin-8-ylmethoxy)-7-(3-hydroxy-1-naphthyl)pyrido[4,3-d]pyrimidin-4-yl]piperazin-2-one] | 100 to 10000 | 100 to 10000 | 100 to 10000 | 100 to 10000 | 100 to 10000 | 100 to 10000 |  |  | > 10000 |  |
| O=C1CCN(c2nc(OCC34CCCN3CCC4)nc3c(F)c(-c4cc(O)cc5ccccc45)ncc23)CCN1 [Example 13] | 10 to 100 | 100 to 10000 | 100 to 10000 | 100 to 10000 | 100 to 10000 | 100 to 10000 |  |  | > 10000 |  |
| O=C1CN(c2nc(OCC34CCCN3CCC4)nc3c(F)c(-c4cc(O)cc5ccccc45)ncc23)CCCN1 [Example 14, 4-[8-fluoro-2-(1,2,3,5,6,7-hexahydropyrrolizin-8-ylmethoxy)-7-(3-hydroxy-1-naphthyl)pyrido[4,3-d]pyrimidin-4-yl]-1,4-diazepan-2-one] | 10 to 100 | 100 to 10000 | 10 to 100 | 10 to 100 | 100 to 10000 | 100 to 10000 |  |  | > 10000 |  |
| CSCCCN(C)c1nc(OCC23CCCN2CCC3)nc2c(F)c(-c3cc(O)cc4ccccc34)ncc12 [Example 27, 4-[8-fluoro-2-(1,2,3,5,6,7-hexahydropyrrolizin-8-ylmethoxy)-4-[methyl(3-methylsulfanylpropyl)amino]pyrido[4,3-d]pyrimidin-7-yl]naphthalen-2-ol] | 100 to 10000 | 100 to 10000 | 100 to 10000 |  | 100 to 10000 | 100 to 10000 |  |  | > 10000 |  |
| COC(C)CCNc1nc(OCC23CCCN2CCC3)nc2c(F)c(-c3cc(O)cc4ccccc34)ncc12 (stereo not drawn) [Example 32, 4-[8-fluoro-2-(1,2,3,5,6,7-hexahydropyrrolizin-8-ylmethoxy)-4-(3-methoxybutylamino)pyrido[4,3-d]pyrimidin-7-yl]naphthalen-2-ol] | 100 to 10000 | 100 to 10000 |  |  | 100 to 10000 | 100 to 10000 |  |  | > 10000 |  |
| COCC1CCN(c2nc(OCC34CCCN3CCC4)nc3c(F)c(-c4cc(O)cc5ccccc45)ncc23)C1 (stereo not drawn) [Example 33, 4-[8-fluoro-2-(1,2,3,5,6,7-hexahydropyrrolizin-8-ylmethoxy)-4-[3-(methoxymethyl)pyrrolidin-1-yl]pyrido [4,3-d]pyrimidin-7-yl]naphthalen-2-ol] | 100 to 10000 | 100 to 10000 |  |  |  | 100 to 10000 |  |  | > 10000 | > 10000 |
| Oc1cc(-c2ncc3c(N4CCCCC4)nc(OCC45CCCN4CCC5)nc3c2F)c2ccccc2c1 [Example 34, 4-[8-fluoro-2-(1,2,3,5,6,7-hexahydropyrrolizin-8-ylmethoxy)-4-(1-piperidyl)pyrido[4,3-d]pyrimidin-7-yl]naphthalen-2-ol] | 10 to 100 | 10 to 100 | 10 to 100 | 10 to 100 | 100 to 10000 | 10 to 100 |  |  | > 10000 |  |
| Oc1cc(-c2ncc3c(NC4CCCCCC4)nc(OCC45CCCN4CCC5)nc3c2F)c2ccccc2c1 [Example 36, 4-[4-(cycloheptylamino)-8-fluoro-2-(1,2,3,5,6,7-hexahydropyrrolizin-8-ylmethoxy)pyrido [4,3-d]pyrimidin-7-yl]naphthalen-2-ol] | 100 to 10000 | 100 to 10000 |  |  |  | 100 to 10000 |  |  | > 10000 | > 10000 |
